According to patent US20210330698A1, “METHODS AND COMPOSITIONS FOR INHIBITING ENVELOPED VIRUSES USING LOW MOLECULAR WEIGHT HYDROPHOBICALLY MODIFIED POLYMERS” (Johnson & Johnson Consumer Inc., priority 2020, published 2021):

Legend:
Format in all cases: cell-based
HIV-1IIIB = test: Time of compound addition in HeLa-CD4-LTR-β-Gal cells; conditions: time of compound addition relative to virus addition
Experimental: HeLa-CD4-LTR-β-Gal cells are seeded at a density of 1×10^4 cells/well in a volume of 100 μL 24 hours prior to assay initiation and incubated at 37° C./5% CO2. Following the incubation compound is serially diluted at the specified concentrations and were added to the cells in triplicate at timepoints of −30 minutes, 0, 1, 2, 4, 8 and 24 hours pre- or post-virus addition in a volume of 100 μL. HIV-1IIIB is added to the cells at a pre-determined titer. The cultures are incubated at 37° C./5% CO2 for 48 hours at which time efficacy is evaluated using a chemiluminescent substrate (Gal-Screen™, ThermoFisher Scientific, Waltham, Mass.) and toxicity (three timepoints of 0, 4 and 24 hours) evaluated using the tetrazolium dye XTT.

Ca Ski (Cervical) cells = test: Toxicity to Ca Ski cells (XTT); conditions: exposure 24 h
Experimental: (§1) TC50 values for the test materials are derived by measuring the reduction of the tetrazolium dye XTT (2,3-bis(2-methoxy-4-nitro-5-sulfophenyl)-5-[(phenylamino)carbonyl]-2H-tetrazolium hydroxide). XTT in metabolically active cells is metabolized by the mitochondrial enzyme Nicotinamide adenine dinucleotide phosphate oxidase (“NADPH”) to a soluble formazan product. XTT solution is prepared daily as a stock of 1 mg/ml in RPMI-1640 without additives. Phenazine methosulfate (PMS) solution is prepared at 0.15 mg/ml in DPBS and stored in the dark at −20° C. XTT/PMS stock is prepared immediately before use by adding 40 μL of PMS per ml of XTT solution. […] of XTT/PMS is added to each well of the plate and the plate incubated for 4 hours at 37° C. The 4 hour incubation has been empirically determined to be within the linear response range for XTT dye reduction with the indicated numbers of cells for each assay. The plates are sealed and inverted several times to mix the soluble formazan product and the plate is read at 450 nm (650 nm reference wavelength) with a Molecular Devices SpectraMax Plus 384 96 well plate format spectrophotometer.
(§2) Twenty-four hours prior to compound exposure, 100 μL of cells are plated at 5×10^4 cells per well in a flat-bottomed plate and. […] The plates are incubated at 5% CO2/37° C. for an additional 24 hours and then evaluated using XTT as described above.

ME180 (Cervical) cells = test: Toxicity to ME180 cells (XTT); conditions: exposure 24 h
Experimental: as §1, §2

[1] = system: Vaginal Ectocervical Tissues; test: Toxicity to vaginal ectocervical tissue (MTT); conditions: exposure 24 h
Experimental: On the day of the assay, the MatTek assay media is warmed and 900 μL added to each well of a 6-well plate. One hour prior to dosing, the epivaginal tissues are removed from the refrigerator and placed in the 6-well plate and the plate then incubated for 1 hour at 37° C./5% CO2. Following the incubation the media is removed from the 6 well plate and 900 μL of fresh media added. One-hundred microliters (100 μL) of each concentration is added in duplicate to the epivaginal tissue. The plate is then incubated for an additional 24 hours at 37° C./5% CO2. One hour prior to the end of the incubation, 1 mg/mL (3-(4,5-Dimethylthiazol-2-yl)-2,5-diphenyltetrazolium bromide (hereinafter, “MTT” available from Invitrogen of Carlsbad, Calif.) in DMEM is prepared. Fifteen minutes prior to the end of the incubation 300 μL of MTT is added to each well of a 24-well plate. Following the incubation, residual liquid is removed from the tissue and then gently rinsed two times with PBS. Each epivaginal tissue insert is then transferred to an individual well of the 24-well plate containing the MTT solution. The plate is then incubated for 3 hours at 37° C./5% CO2. […] The optical density of each sample is determined at 570 nm with a background of 650 nm. The % viability is determined to be 100×[OD(sample)/OD(negative control)]. […]

Compound | Time in which Antiviral Activity is Lost (HIV-1IIIB) | toxic concentration (Ca Ski (Cervical) cells) | toxic concentration (ME180 (Cervical) cells) | toxic concentration [1]
O=C1Nc2ccc(Cl)cc2[C@@](C#CC2CC2)(C(F)(F)F)O1 [Efavirenz] | 4 to 8 h | – | – | –
Nonoxynol-9 [Embodiment N-9] | – | 36.31 µg/mL | 41.83 µg/mL | 100 to 1000 µg/mL
